Experimental data taken from patent publication EP2246037A2, “Anti-aging and whitening properties of quercetin, 18a-glycyrrhetinic acid, hederagenin and its derivatives” (Korres S.A. Natural Products, priority 2009, dated 2010).
“Also recorded” adds a separate entry of the source.

Tests used:
[1] = test system: HFL-1 human diploid fibroblasts; experiment: Lifespan (cumulative population doublings) and morphology of fibroblasts under continuous treatment; assay type: cell-based; design: key to cpd: cumulative population doublings: CPD=Σ LOG[Nfinal/Ninitial]/LOG[2]; conditions: for appearance of the senescent phenotype: summary of sections 1 and 2
Experimental: The steps, methods and results that were obtained regarding the anti-aging properties of the examined substances are the following: • 1) Study of the lifespan of human diploid fibroblasts in vitro in the presence of the substances. • 1.1. HFL-1 human diploid fibroblasts (HDFs) were used in in vitro conditions (growth at 37°C, 5% CO2 and 95% humidity). • 1.2. The cells were maintained in Dulbecco's modified Eagle's medium (DMEM ®; Invitrogen Life Technologies Inc.) supplemented with 10% (v/v) fetal calf serum, 100 Units/ml penicillin, 100 µg/ml strepromycin, 2 mM glutamine and 1% (v/v) non-essential amino acids (complete medium). • 1.3. The cells were constantly cultured in culture medium supplemented with the substances [final concentration for quercetin (QUER), 18α-glycyrrhetinic acid (18α GA), and hederagenin (HED): 2 µg/ml and for quercetin caprylate (QU-CAP) three concentrations were applied: 0.5, 2 and 5 µg/ml]. Quercetin, 18α-glycyrrhetinic acid and hederagenin were diluted in DMSO (dimethyl sulfoxide) whereas quercetin caprylate was diluted in caprilic/capric triglycerides (CAP). Therefore, the control cultures were incubated in medium supplemented with 0.1% DMSO or 0.1% CAP. • 1.4. The cells were replenished with fresh media supplemented with the substances or the diluents every 24 h and their numbers were examined using a Coulter Z2 ® counter (Coulter Corporation) until they reached senescence (approximately after 13 weeks). The cumulative population doublings performed by each culture were calculated using the following formula: CPD=Σ[PD] where PD=LOG[Nfinal/Ninitial]/LOG[2], where N final represents the number of cells that were measured when each culture reached confluence and N initial represents the number of cells that was initially seeded. • 1.5. Photographs of the cells maintained in cell culture and treated with the various substances for the same time period were taken. • 1.6. […] More specifically, cells that were incubated with quercetin caprylate gave up to 2.8% more population doublings as compared to the population doublings performed by the relative control cultures. Cells that were incubated with the other substances gave up to 2.9% more population doublings as compared to their relative control cultures. • 1.7. […] Cells that were treated with either of the tested substances maintained the young morphology for longer as compared to the control cultures (DMSO-treated and CAP-treated). […] HFL-1 HDFs were cultured as described in 1.1-1.4 for 10 consecutive weeks and were then subjected to β-galactosidase activity staining. • 1.2. Briefly, 10^5 cells from each culture were seeded in 6-well plates. After 24 h cells were washed with PBS (phosphate buffered saline), fixed in 0.2% glutaraldehyde and 2% formaldehyde for 5 min, washed again with PBS, and finally stained for 24 h at 37 °C in the absence of CO2, in staining solution (150 mM NaCl, 2 mM MgCl2, 5 mM K3Fe(CN)6, 40 mM citric acid, and 12 mM sodium phosphate, pH 6.0) containing 1 mg/ml 5-bromo-4-chloro-3-indolyl-β-D-galactoside. Photographs were then taken. • 1.3. […] HFL-1 HDFs that have senesced in vitro were used (growth at 37°C, 5% CO2 and 95% humidity). More specifically, middle aged HFL-1 HDFs (cpd 59) and terminally senescent HFL-1 HDFs (cpd 65) that had senesced in the absence of any substance were used. • 3.2. The cells were seeded and maintained in complete medium (see 1.2). Culture medium supplemented with the substances [final concentration for quercetin (QUER), 18α-glycyrrhetinic acid (18α GA), and hederagenin (HED): 2 µg/ml and for quercetin caprylate (QU-CAP) three concentrations were applied: 0.5, 2 and 5 µg/ml] or the diluents (0.1% DMSO or 0.1% CAP) were added 24 h later. The cells were replenished with fresh media supplemented with the substances or the diluents every 24 h for 1 week and their numbers were then examined using a Coulter Z2 ® counter (Coulter Corporation). • 3.3. […]

HFL-1 HDFs = experiment: Levels of oxidized (carbonylated) proteins, OxyBlot analysis; assay type: cell-based, human; conditions: 24 h treatment, versus relative control cells
[2] = HFL-1 cells, 2 µg/ml, 13 consecutive weeks
[3] = Table 2, 2 µg/ml, 55 days in culture
[4] = HFL-1 cells, 0, 5 µg/ml, 13 consecutive weeks
[5] = HFL-1 cells, 5 µg/ml, 13 consecutive weeks

Row | Molecule | cpd [1, 2] | cpd, change versus relative diluent control [1, 2] | cpd [1, 3] | cpd [1, 4] | cpd, change versus relative diluent control [1, 4] | cpd [1, 5] | cpd, change versus relative diluent control [1, 5] | cpd ([1]; Table 2, 0,5 µg/ml, 55 days in culture) | cpd ([1]; Table 2, 5 µg/ml, 55 days in culture) | more population doublings as compared to the relative control cultures ([1]; summary of Table 1, quercetin caprylate 0.5, 2 and 5 µg/ml, other substances 2 µg/ml) | appearance of the senescent phenotype [1] | levels of oxidized proteins (HFL-1 HDFs)
1 | CC1(C)CC[C@]2(C(=O)O)CC[C@]3(C)C(=CC[C@@H]4[C@@]5(C)CC[C@H](O)[C@@](C)(CO)[C@@H]5CC[C@]43C)[C@@H]2C1 [Hederagenin] | 65.4 | +0.5% | 65.06 | – | – | – | – | – | – | – | – | –
2 | quercetin caprylate | 66.0 | +2.8% | 64.87 | 65.9 | +2.6% | 65.4 | +1.9% | 65.09 | 63.96 | up to 2.8% | delay in the appearance of the senescent phenotype | less oxidized proteins; also recorded: lower amounts of oxidized proteins
3 | CC1(C)[C@@H](O)CC[C@]2(C)[C@H]3C(=O)C=C4[C@H]5C[C@@](C)(C(=O)O)CC[C@]5(C)CC[C@@]4(C)[C@]3(C)CC[C@@H]12 [18α-glycyrrhetinic acid] | 67 | +2.9% | 65.02 | – | – | – | – | – | – | – | delay in the appearance of the senescent phenotype | slightly lower levels of oxidized carbonylated proteins; also recorded: lower amounts of oxidized proteins
4 | O=c1c(O)c(-c2ccc(O)c(O)c2)oc2cc(O)cc(O)c12 [Quercetin] | 57.24 | – | 54.39 | – | – | – | – | – | – | – | delay in the appearance of the senescent phenotype | –
